Test results from ChEMBL document CHEMBL1128302, “Synthesis, absolute configuration, and enantioselectivity of antiretroviral effect of (R)-(-)- and (S)-(+)-cytallene. Lipase-catalyzed enantioselective acylations of (+/-)-N4-acylcytallenes” (J Med Chem, 1995).

Assay: Inhibitory activity against HIV-1 replication in phytohemagglutininin-activated peripheral blood mononuclear (PHA-PBM) cells
Type: functional, Homo sapiens

Structure (SMILES)	IC50	IC90	IC90 (Homo sapiens)
Nc1ccn(C=C=CCO)c(=O)n1 (stereo in doubt; 1b)	0.8 µM	3.4 µM	
Nc1ccn(C=C=CCO)c(=O)n1 (stereo in doubt; 2b)	0.4 µM		1.7 µM
Nc1ccn(C=C=CCO)c(=O)n1 (stereo in doubt; 3c)	> 10 µM		
